Assay results as given in ChEMBL document CHEMBL4346717, “1,2,4-Triazole-quinoline/quinolone hybrids as potential anti-bacterial agents” (Eur J Med Chem, 2019).
≈ marks a conversion by molar mass, not a printed value.

Columns and labels:
[1] = system: Escherichia coli; assay: Antibacterial activity against Escherichia coli; assay type: functional
[2] = system: Pseudomonas aeruginosa; assay: Antibacterial activity against Pseudomonas aeruginosa; assay type: functional
[3] = system: Staphylococcus aureus; assay: Antibacterial activity against Staphylococcus aureus; assay type: functional
[4] = system: Mycolicibacterium phlei; assay: Antibacterial activity against Mycobacterium phlei clinical isolate assessed as zone of inhibition at 10 mg/ml after 3 to 7 days by cup diffusion method; assay type: functional; conditions: read-out: IZ
[5] = system: Bacillus subtilis; assay: Antibacterial activity against Bacillus subtilis after 3 to 7 days by cup diffusion method; assay type: functional; conditions: Bacillus subtilis; read-out: MIC
[6] = system: Pseudomonas aeruginosa; assay: Antibacterial activity against Pseudomonas aeruginosa assessed as zone of inhibition at 10 mg/ml after 3 to 7 days by cup diffusion method; assay type: functional; conditions: read-out: IZ
[7] = system: Bacillus subtilis; assay: Antibacterial activity against Bacillus subtilis assessed as zone of inhibition at 10 mg/ml after 3 to 7 days by cup diffusion method; assay type: functional; conditions: read-out: IZ
[8] = system: Escherichia coli; assay: Antibacterial activity against Escherichia coli after 3 to 7 days by cup diffusion method; assay type: functional; conditions: Escherichia coli; read-out: MIC
[9] = system: Aggregatibacter actinomycetemcomitans; assay: Antibacterial activity against Aggregatibacter actinomycetemcomitans ATCC 29524 assessed as zone of inhibition at 10 mg/ml after 3 to 7 days by cup diffusion method; assay type: functional; conditions: read-out: IZ
[10] = system: Staphylococcus aureus; assay: Antibacterial activity against Staphylococcus aureus assessed as zone of inhibition at 10 mg/ml after 3 to 7 days by cup diffusion method; assay type: functional; conditions: read-out: IZ
[11] = system: Staphylococcus aureus; assay: Antibacterial activity against Staphylococcus aureus after 3 to 7 days by cup diffusion method; assay type: functional; conditions: Staphylococcus aureus; read-out: MIC
[12] = system: Aggregatibacter actinomycetemcomitans; assay: Antibacterial activity against Aggregatibacter actinomycetemcomitans ATCC 29524 after 3 to 7 days by cup diffusion method; assay type: functional; conditions: Aggregatibacter actinomycetemcomitans, ATCC 29524; read-out: MIC
[13] = system: Escherichia coli; assay: Antibacterial activity against Escherichia coli assessed as zone of inhibition at 10 mg/ml after 3 to 7 days by cup diffusion method; assay type: functional; conditions: read-out: IZ
[14] = system: Mycolicibacterium phlei; assay: Antibacterial activity against Mycobacterium phlei clinical isolate after 3 to 7 days by cup diffusion method; assay type: functional; conditions: Mycolicibacterium phlei; read-out: MIC
[15] = system: Pseudomonas aeruginosa; assay: Antibacterial activity against Pseudomonas aeruginosa after 3 to 7 days by cup diffusion method; assay type: functional; conditions: Pseudomonas aeruginosa; read-out: MIC
[16] = biological target: DNA gyrase (Escherichia coli, UniProt P0AES4+P0AES6); assay: Inhibition of Escherichia coli DNA gyrase super-coiling activity using pBR322 DNA as substrate after 30 mins by fluorescence assay; assay type: protein-complex assay
[17] = system: Bacillus cereus; assay: Antibacterial activity against Bacillus cereus; assay type: functional
[18] = system: Mycolicibacterium smegmatis; assay: Antibacterial activity against Mycobacterium smegmatis; assay type: functional
[19] = system: Yersinia pseudotuberculosis; assay: Antibacterial activity against Yersinia pseudotuberculosis; assay type: functional
[20] = system: Enterococcus faecalis; assay: Antibacterial activity against Enterococcus faecalis; assay type: functional
[21] = system: Pseudomonas aeruginosa; assay: Antibacterial activity against Pseudomonas aeruginosa assessed as zone of inhibition at 100 ug/ml; conditions: read-out: IZ
[22] = system: Staphylococcus epidermidis; assay: Antibacterial activity against Staphylococcus epidermidis assessed as zone of inhibition at 100 ug/ml; conditions: read-out: IZ
[23] = system: Escherichia coli; assay: Antibacterial activity against multi drug-resistant Escherichia coli; assay type: functional
[24] = system: Escherichia coli; assay: Antibacterial activity against Escherichia coli assessed as zone of inhibition at 100 ug/ml; conditions: read-out: IZ
[25] = system: Staphylococcus aureus; assay: Antibacterial activity against methicillin-resistant Staphylococcus aureus; assay type: functional
[26] = system: Bacillus cereus; assay: Antibacterial activity against Bacillus cereus assessed as zone of inhibition at 100 ug/ml; assay type: functional; conditions: read-out: IZ
[27] = system: Aspergillus fumigatus; assay: Antifungal activity against Aspergillus fumigatus assessed as zone of inhibition at 100 ug/ml; assay type: functional; conditions: read-out: IZ
[28] = system: Aspergillus niger; assay: Antifungal activity against Aspergillus niger assessed as zone of inhibition at 100 ug/ml; assay type: functional; conditions: read-out: IZ

Cc1ccc2c(-c3ccccc3)cc(=O)n(Cc3nnc(S)n3N)c2c1
MIC [1]: 8 to 256 µg/mL (≈ 22 to 704 µM) | MIC [2]: 8 to 256 µg/mL (≈ 22 to 704 µM) | MIC [3]: 8 to 256 µg/mL (≈ 22 to 704 µM)

COc1cccc2c(-c3ccccc3)cc(=O)n(Cc3nnc(S)n3N)c12
MIC [1]: 8 to 256 µg/mL (≈ 21.1 to 675 µM) | MIC [2]: 8 to 256 µg/mL (≈ 21.1 to 675 µM) | MIC [3]: 8 to 256 µg/mL (≈ 21.1 to 675 µM)

CCn1cc(-c2nc(/N=C/c3ccc(Br)cc3)n[nH]2)c(=O)c2cc(Br)c(C)nc21
zone of inhibition at 10000 µg/mL [4]: 20 to 40 mm | MIC [5]: 3.68 to 6.3 µM (≈ 1.9 to 3.25 µg/mL) | zone of inhibition at 10000 µg/mL [6]: 20 to 40 mm | zone of inhibition at 10000 µg/mL [7]: 20 to 40 mm | MIC [8]: 3.68 to 6.3 µM (≈ 1.9 to 3.25 µg/mL) | zone of inhibition at 10000 µg/mL [9]: 20 to 40 mm | zone of inhibition at 10000 µg/mL [10]: 20 to 40 mm | MIC [11]: 3.68 to 6.3 µM (≈ 1.9 to 3.25 µg/mL) | MIC [12]: 3.68 to 6.3 µM (≈ 1.9 to 3.25 µg/mL) | zone of inhibition at 10000 µg/mL [13]: 20 to 40 mm | MIC [14]: 3.68 to 6.3 µM (≈ 1.9 to 3.25 µg/mL) | MIC [15]: 3.68 to 6.3 µM (≈ 1.9 to 3.25 µg/mL)

CCn1cc(-c2nc(NC(=O)c3ccccc3)n[nH]2)c(=O)c2cc(Br)c(C)nc21
zone of inhibition at 10000 µg/mL [4]: 20 to 40 mm | MIC [5]: 3.68 to 6.3 µM (≈ 1.67 to 2.86 µg/mL) | zone of inhibition at 10000 µg/mL [6]: 20 to 40 mm | zone of inhibition at 10000 µg/mL [7]: 20 to 40 mm | MIC [8]: 3.68 to 6.3 µM (≈ 1.67 to 2.86 µg/mL) | zone of inhibition at 10000 µg/mL [9]: 20 to 40 mm | zone of inhibition at 10000 µg/mL [10]: 20 to 40 mm | IC50 [16]: 4.28 µM | MIC [11]: 3.68 to 6.3 µM (≈ 1.67 to 2.86 µg/mL) | MIC [12]: 3.68 to 6.3 µM (≈ 1.67 to 2.86 µg/mL) | zone of inhibition at 10000 µg/mL [13]: 20 to 40 mm | MIC [14]: 3.68 to 6.3 µM (≈ 1.67 to 2.86 µg/mL) | MIC [15]: 3.68 to 6.3 µM (≈ 1.67 to 2.86 µg/mL)

Cc1ccc2c(c1)c(-c1ccccc1)cc(=O)n2Cc1nnc(S)n1N
MIC [1]: 8 to 256 µg/mL (≈ 22 to 704 µM) | MIC [2]: 8 to 256 µg/mL (≈ 22 to 704 µM) | MIC [3]: 8 to 256 µg/mL (≈ 22 to 704 µM)

Nn1c(S)nnc1Cn1c(=O)cc(-c2ccccc2)c2ccccc21
MIC [1]: 8 to 256 µg/mL (≈ 22.9 to 733 µM) | MIC [2]: 8 to 256 µg/mL (≈ 22.9 to 733 µM) | MIC [3]: 8 to 256 µg/mL (≈ 22.9 to 733 µM)

COc1ccc2c(c1)c(-c1ccccc1)cc(=O)n2Cc1nnc(S)n1N
MIC [1]: 8 to 256 µg/mL (≈ 21.1 to 675 µM) | MIC [2]: 8 to 256 µg/mL (≈ 21.1 to 675 µM) | MIC [3]: 8 to 256 µg/mL (≈ 21.1 to 675 µM)

Cc1cccc2c(-c3ccccc3)cc(=O)n(Cc3nnc(S)n3N)c12
MIC [1]: 8 to 256 µg/mL (≈ 22 to 704 µM) | MIC [2]: 8 to 256 µg/mL (≈ 22 to 704 µM) | MIC [3]: 8 to 256 µg/mL (≈ 22 to 704 µM)

CCn1cc(C(=O)O)c(=O)c2cc(F)c(N3CCN(Cn4nc(N5CCN(c6ccc([N+](=O)[O-])cc6)CC5)n(-c5ccccc5)c4=S)CC3)cc21
MIC [17]: 0.03 to 0.99 µg/mL (≈ 0.042 to 1.39 µM) | MIC [1]: 0.03 to 0.99 µg/mL (≈ 0.042 to 1.39 µM) | MIC [18]: 0.03 to 0.99 µg/mL (≈ 0.042 to 1.39 µM) | MIC [19]: 0.03 to 0.99 µg/mL (≈ 0.042 to 1.39 µM) | MIC [2]: 0.03 to 0.99 µg/mL (≈ 0.042 to 1.39 µM) | MIC [3]: 0.03 to 0.99 µg/mL (≈ 0.042 to 1.39 µM) | MIC [20]: 0.03 to 0.99 µg/mL (≈ 0.042 to 1.39 µM)

CC1(C)S[C@@H]2[C@H](NC(=O)[C@H](N)c3ccccc3)C(=O)N2[C@H]1C(=O)O [AMPICILLIN]
MIC [17]: 10 to 128 µg/mL (≈ 28.6 to 366 µM) | MIC [1]: 10 to 128 µg/mL (≈ 28.6 to 366 µM) | MIC [18]: 10 to 128 µg/mL (≈ 28.6 to 366 µM) | MIC [19]: 10 to 128 µg/mL (≈ 28.6 to 366 µM) | MIC [2]: 10 to 128 µg/mL (≈ 28.6 to 366 µM) | MIC [3]: 10 to 128 µg/mL (≈ 28.6 to 366 µM) | MIC [20]: 10 to 128 µg/mL (≈ 28.6 to 366 µM)

O=C(O)c1cn(C2CC2)c2cc(N3CCNCC3)c(F)cc2c1=O [CIPROFLOXACIN]
zone of inhibition at 100 µg/mL [21]: 23 to 29 mm | zone of inhibition at 100 µg/mL [22]: 23 to 29 mm | MIC [23]: 0.25 to 8 µg/mL (≈ 0.754 to 24.1 µM) | zone of inhibition at 100 µg/mL [24]: 23 to 29 mm | MIC [25]: 0.25 to 8 µg/mL (≈ 0.754 to 24.1 µM) | zone of inhibition at 100 µg/mL [26]: 23 to 29 mm

OC(Cn1cncn1)(Cn1cncn1)c1ccc(F)cc1F [FLUCONAZOLE]
zone of inhibition at 100 µg/mL [27]: 26 mm | zone of inhibition at 100 µg/mL [28]: 29 mm
